According to publication PMC7156724, “Potent BRD4 inhibitor suppresses cancer cell-macrophage interaction” (Nature Communications, 2020):
Where “and” joins values, the source holds several entries; their conditions need not be identical. Equal entries are not always repeated. Where two headings read alike, the source gives them in different places.

Assays:
[1] = Metabolic stability assay, dog liver microsomes; conditions: for Remaining in Dog liver microsomes (Sup Fig.6c): in % (unit assumed)
Protocol: 7. Metabolic stability assay. The metabolic profile of NHWD-870 was determined using mouse, rat, dog, monkey, and human liver microsomes using the protocols […]
No. Compound ID Exat Mass Stock Conc.
1) 100 mM potassium phosphate buffer, PH7.4; 2) 10mM MgCI2
1) Intermediate solution: Dilute 5 μL of compound or control from stock solution (10 mM) with 45 uL DMSO,then mixed with 450 μL 1:1 Methanol/Water (Conc.: 10 0 […]
2) Working solution: Dilute 50 μL from intermediate solution with 450 μL 100 mM potassium phosphate buffer (Conc.: 10 μM, 4.5%MeOH)
(3) NADPH regenerating system (final Isocitric dehydrogenase conc.= 1 unit/mL at […]
1) β-Nicotinamide adenine dinucleotide phosphate, Vendor: sigma Cat. No. N0505
2) Isocitric acid, Vendor: Sigma Cat. No. I1252
3) Isocitric dehydrogenase, Vendor: sigma Cat. No. I2002
(4) Liver microsome solution preparation (final concentration o f 0.5 mg protein/mL) […]
Cold ACN including 100 ng/mL Tolbutamide and 100 ng/mL Labetalol as internal […]
1) Add 10 μL compound or control working solution/well to all plates (T0, T5, T10, T20, T30, T60, NCF60) except matrix blank.
2) Dispense 680 μL/well microsome solution to 96-well plate as reserv oir according to […]
plate map. Then add 80 μL/well to every plate by Apricot, incubate the mixture of microsome solution and compound at 37℃ for about 10 min.
3) Add 10 μL 100 mM potassium phosphate buffer/well to NCF60, incubate at 37℃, […]
4) After pre-warming, dispense 90 μL/well NADPH regenerating system to 96-well plate as reservoir according to the plate map. Then add 10 μL/well to every plate by Apricot to start reaction.
5) Incubate at 37℃, start timer 2.
6) Add 300 (μL/well) stop solution (cold in 4℃, including 100 ng/mL Tolbutamide and 100 ng/mL Labetalol) to terminate the reaction.
7) The sampling plates are shaked for approx 10 min.
8) Samples are centrifuged at 4000 rpm for 20 min under 4℃.
9) While centrifuging, load 8×new 96-well plate with 300 μL HPLC water, then transfer 100 μL supernatant, mixed for LC/MS/MS.
Use equation of first order kinetics to calculate t1/2 and Clin t(mic): […]
Equation of first order kinetics: […]

[2] = system: monocytes in peripheral blood; test: Complete blood cell counting of monocytes in B16F10 tumor bearing mice; type: in vivo, mouse; conditions: B16F10 melanoma tumor bearing mice, 11 days
Protocol: Reviewer Fig 3. […] B16F10 melanoma […]
tumor bearing mice (n=5) treated with the indicated compounds for 11 days. Monocytes in blood of DMSO and NHWD-870-treated mice were analyzed by complete blood cell counting (CBC). […]
tumor cells blocks mCSF expression and blocks proliferation of macrophages ex vivo. It is not possible from these studies to conclude if NHWD-870 mediated inhibition of mCSF expression is responsible for […]
In part, this is because the culture conditions for this unusual assay have not been described in the methods or text sections. What are the components of the culture medium? Does it include serum, mCSF and other growth factors? A more direct method of testing the effect of tumor cell expressed mCSF on TAMs ex vivo is to incubate TAMs in defined tumor cell conditioned media from untreated and treated tumor cells (the media placed on the macrophages should not include the drug, however). However, there is one other key weakness to these studies that […]
It is thus not clear if absence of mCSF or products from dying cells suppress macrophage growth as colonies ex vivo. […]
experiments, which has been added and addressed in response to comment #4. We agree that the experiments can be done with conditioned media. […]
Shown are schematics of the experiments (m) and quantification of TAMs (n, o). […]

[3] = Concentration in lungs and tumors of H526 xenograft model; type: in vivo, mouse; conditions: for concentration at 8 h / concentration at 24 h: female, BALB/c nude, mouse, oral
Text: Supplementary Figure 7. Pharmacokinetic profile of NHWD-870 using mouse and rat models. […]
98615821 on day 21. These mice were administrated the indicated drug daily for 21 days. Data are represented as mean ± SEM of 3 independent experiments. Source data are provided as a Source Data file. […]
9. In vivo pharmacokinetics study. Mouse and SD rat models were used to evaluate pharmacokinetic property of NHWD-870. NHWD-870 was administrated […]
Concentration of drugs in plasma, lung and tumor tissues were measured for the indicated time. […]

[4] = Beagle, dog, liver microsomes, pH 7.4

Cc1nnn(C)c1-c1cnc2c3c4cnn(C)c4ccc3n([C@H](c3ccccc3)C3CCOCC3)c2c1 [NHWD-870] showed a CLint scaled at 1 µM [1, 4] of 95.9 mL/min/kg, a half-life at 1 µM [1, 4] of 20.8 min and a microsomal CLint at 1 µM ([1]; Beagle, dog, microsomes, pH 7.4) of 66.6 µL/min/mg. The “Remaining (T=60min)” value ([1]; dog liver microsomes) was 12.4%, the “Remaining (*NCF=60min)” value ([1]; dog liver microsomes, no cofactor) was 84.1% and the “Remaining in Dog liver microsomes (Sup Fig.6c)” value (“Remaining … (Sup Fig.6c)” below) ([1]; time 0) was 100. For the same molecule, the “Remaining … (Sup Fig.6c)” value ([1]; time 5) was 89.9, the “Remaining … (Sup Fig.6c)” value ([1]; time 10) was 73.773 and the “Remaining … (Sup Fig.6c)” value ([1]; time 20) was 58.934. The “Remaining … (Sup Fig.6c)” value ([1]; time 30) was 41.202, the “Remaining … (Sup Fig.6c)” value ([1]; time 60) was 25.67 and the “effects on monocytes in peripheral blood” value [2] was “relatively mild effects”. The “Analyte Concentration in Tumor Homogenate” value ([3]; Group 2, 3 mg/kg QD, 8h, individual animals) was 51.4 ng/mL and 12.9 ng/mL and 16.6 ng/mL, the “Analyte Concentration in Lung Homogenate” value ([3]; Group 2, 3 mg/kg QD, 8h, individual animals, LLOQ 1 ng/mL) was 13.8 ng/mL and 4.51 ng/mL and 8.51 ng/mL and the “Analyte Concentration in Lung” value ([3]; Group 2, 3 mg/kg QD, 8h, individual animals, LLOQ 10 ng/g) was 138 ng/g and 45.1 ng/g and 85.1 ng/g. For the same molecule, the “Analyte Concentration in Tumor” value ([3]; Group 2, 3 mg/kg QD, 8h, individual animals, dilution factor 10) was 514 ng/g and 129 ng/g and 166 ng/g, the “Analyte Concentration in Tumor Homogenate” value ([3]; Group 2, 3 mg/kg QD, 24h, individual animals) was 3.37 ng/mL and 2.3 ng/mL and 5.48 ng/mL and the “Analyte Concentration in Lung Homogenate” value ([3]; Group 2, 3 mg/kg QD, 24h, individual animals, LLOQ 1 ng/mL) was “BQL”. The “Analyte Concentration in Lung” value ([3]; Group 2, 3 mg/kg QD, 24h, individual animals, LLOQ 10 ng/g) was “BQL”, the “Analyte Concentration in Tumor” value ([3]; Group 2, 3 mg/kg QD, 24h, individual animals, dilution factor 10) was 33.7 ng/g and 23 ng/g and 54.8 ng/g and the “Analyte Concentration in Tumor Homogenate” value ([3]; Group 3, 1.5 mg/kg QD, 8h, individual animals) was 19.2 ng/mL and 22.1 ng/mL. The “Analyte Concentration in Lung Homogenate” value ([3]; Group 3, 1.5 mg/kg QD, 8h, individual animals, LLOQ 1 ng/mL) was 6.31 ng/mL and 9.86 ng/mL, the “Analyte Concentration in Lung” value ([3]; Group 3, 1.5 mg/kg QD, 8h, individual animals, LLOQ 10 ng/g) was 63.1 ng/g and 98.6 ng/g and the “Analyte Concentration in Tumor” value ([3]; Group 3, 1.5 mg/kg QD, 8h, individual animals, dilution factor 10) was 192 ng/g and 221 ng/g. The “Analyte Concentration in Tumor Homogenate” value ([3]; Group 3, 1.5 mg/kg QD, 24h, individual animals) was 2.34 ng/mL and 1.67 ng/mL, the “Analyte Concentration in Lung Homogenate” value ([3]; Group 3, 1.5 mg/kg QD, 24h, individual animals, LLOQ 1 ng/mL) was “BQL” and the “Analyte Concentration in Lung” value ([3]; Group 3, 1.5 mg/kg QD, 24h, individual animals, LLOQ 10 ng/g) was “BQL”. For the same molecule, the “Analyte Concentration in Tumor” value ([3]; Group 3, 1.5 mg/kg QD, 24h, individual animals, dilution factor 10) was 23.4 ng/g and 16.7 ng/g, the “Analyte Concentration in Tumor Homogenate” value ([3]; Group 4, 3 mg/kg Q2D, 8h, individual animals) was 82.3 ng/mL and 21.5 ng/mL and 23.8 ng/mL and the “Analyte Concentration in Lung Homogenate” value ([3]; Group 4, 3 mg/kg Q2D, 8h, individual animals, LLOQ 1 ng/mL) was 49.2 ng/mL and 8.34 ng/mL and 15.8 ng/mL. The “Analyte Concentration in Lung” value ([3]; Group 4, 3 mg/kg Q2D, 8h, individual animals, LLOQ 10 ng/g) was 492 ng/g and 83.4 ng/g and 158 ng/g, the “Analyte Concentration in Tumor” value ([3]; Group 4, 3 mg/kg Q2D, 8h, individual animals, dilution factor 10) was 823 ng/g and 215 ng/g and 238 ng/g and the “Analyte Concentration in Tumor Homogenate” value ([3]; Group 4, 3 mg/kg Q2D, 24h, individual animals) was 6.96 ng/mL and 4.06 ng/mL and 14.6 ng/mL. The “Analyte Concentration in Lung Homogenate” value ([3]; Group 4, 3 mg/kg Q2D, 24h, individual animals, LLOQ 1 ng/mL) was 6.96 ng/mL and BQL and 2.42 ng/mL, the “Analyte Concentration in Lung” value ([3]; Group 4, 3 mg/kg Q2D, 24h, individual animals, LLOQ 10 ng/g) was 69.6 ng/g and BQL and 24.2 ng/g and the “Analyte Concentration in Tumor” value ([3]; Group 4, 3 mg/kg Q2D, 24h, individual animals, dilution factor 10) was 69.6 ng/g and 40.6 ng/g and 146 ng/g. The “penetration into the lungs and SCLC tumors” value ([3]; H526 xenograft model, oral 3 mg/kg daily for 21 days) was “good penetration into the lungs and SCLC tumors”, the concentration at 8 h ([3]; lung homogenate, 1.5 mg/kg, Group 3, 1.5 mg/kg QD, 8h, individual animals, LLOQ 1 ng/mL, read-out: Analyte Concentration in Lung Homogenate) was 5.65 ng/mL and the concentration at 24 h ([3]; lung homogenate, 3 mg/kg, Group 2, 3 mg/kg QD, 24h, individual animals, LLOQ 1 ng/mL, read-out: Analyte Concentration in Lung Homogenate) was 1.12 ng/mL. It also gave a concentration at 8 h ([3]; lung, 1.5 mg/kg, Group 3, 1.5 mg/kg QD, 8h, individual animals, LLOQ 10 ng/g, read-out: Analyte Concentration in Lung) of 56.5 ng/g, a concentration at 8 h ([3]; lung, 1.5 mg/kg, Group 3, 1.5 mg/kg QD, 8h, mean, read-out: Mean Concentration in Lung) of 72.7 ng/g and a concentration at 8 h ([3]; lung, 3 mg/kg, Group 2, 3 mg/kg QD, 8h, mean, read-out: Mean Concentration in Lung) of 89.4 ng/g. The concentration at 24 h ([3]; lung, 3 mg/kg, Group 2, 3 mg/kg QD, 24h, individual animals, LLOQ 10 ng/g, read-out: Analyte Concentration in Lung) was 11.2 ng/g, the concentration at 8 h ([3]; lung, 3 mg/kg, Group 4, 3 mg/kg Q2D, 8h, mean, read-out: Mean Concentration in Lung) was 244 ng/g and the concentration at 24 h ([3]; lung, 3 mg/kg, Group 4, 3 mg/kg Q2D, 24h, mean, read-out: Mean Concentration in Lung) was 46.9 ng/g. It also gave a concentration at 8 h ([3]; tumor homogenate, 1.5 mg/kg, Group 3, 1.5 mg/kg QD, 8h, individual animals, read-out: Analyte Concentration in Tumor Homogenate) of 14.3 ng/mL, a concentration at 24 h ([3]; tumor homogenate, 1.5 mg/kg, Group 3, 1.5 mg/kg QD, 24h, individual animals, read-out: Analyte Concentration in Tumor Homogenate) of 2.06 ng/mL and a concentration at 8 h ([3]; tumor, 1.5 mg/kg, Group 3, 1.5 mg/kg QD, 8h, individual animals, dilution factor 10, read-out: Analyte Concentration in Tumor) of 143 ng/g. The concentration at 8 h ([3]; tumor, 1.5 mg/kg, Group 3, 1.5 mg/kg QD, 8h, mean, read-out: Mean Concentration in Tumor) was 185 ng/g, the concentration at 24 h ([3]; tumor, 1.5 mg/kg, Group 3, 1.5 mg/kg QD, 24h, individual animals, dilution factor 10, read-out: Analyte Concentration in Tumor) was 20.6 ng/g and the concentration at 24 h ([3]; tumor, 1.5 mg/kg, Group 3, 1.5 mg/kg QD, 24h, mean, read-out: Mean Concentration in Tumor) was 20.2 ng/g. For the same molecule, the concentration at 8 h ([3]; tumor, 3 mg/kg, Group 2, 3 mg/kg QD, 8h, mean, read-out: Mean Concentration in Tumor) was 270 ng/g, the concentration at 24 h ([3]; tumor, 3 mg/kg, Group 2, 3 mg/kg QD, 24h, mean, read-out: Mean Concentration in Tumor) was 37.2 ng/g and the concentration at 8 h ([3]; tumor, 3 mg/kg, Group 4, 3 mg/kg Q2D, 8h, mean, read-out: Mean Concentration in Tumor) was 425 ng/g. The concentration at 24 h ([3]; tumor, 3 mg/kg, Group 4, 3 mg/kg Q2D, 24h, mean, read-out: Mean Concentration in Tumor) was 85.4 ng/g.
